Columns and labels:
Assay type in all cases: biochemical
[1] = biological target: T1, Fructofuranosidase activity of the extracellular fraction of S. occidentalis (Schwanniomyces occidentalis, UniProt P24133); assay: Fructofuranosidase activity of the extracellular fraction on different carbohydrates (glucose release, glucose oxidase-peroxidase); details: for Specific activity: extracellular fraction concentrated (30 kDa filter) and dialysed, activity on the named substrate; for Fructofuranosidase activity on substrate (in words): extracellular fraction, named sugar used as substrate
T1 construct: the enzyme object of the invention is extracellularly released; endogenous in cells; host or cells: Schwanniomyces occidentalis (ATCC26077 named) grown in lactose medium; the cell-free supernatant was concentrated by 30 kDa tangential filtration and dialysed
T1 sequence (P24133 other isoform, or with tags, fused parts or gaps with the stated changes): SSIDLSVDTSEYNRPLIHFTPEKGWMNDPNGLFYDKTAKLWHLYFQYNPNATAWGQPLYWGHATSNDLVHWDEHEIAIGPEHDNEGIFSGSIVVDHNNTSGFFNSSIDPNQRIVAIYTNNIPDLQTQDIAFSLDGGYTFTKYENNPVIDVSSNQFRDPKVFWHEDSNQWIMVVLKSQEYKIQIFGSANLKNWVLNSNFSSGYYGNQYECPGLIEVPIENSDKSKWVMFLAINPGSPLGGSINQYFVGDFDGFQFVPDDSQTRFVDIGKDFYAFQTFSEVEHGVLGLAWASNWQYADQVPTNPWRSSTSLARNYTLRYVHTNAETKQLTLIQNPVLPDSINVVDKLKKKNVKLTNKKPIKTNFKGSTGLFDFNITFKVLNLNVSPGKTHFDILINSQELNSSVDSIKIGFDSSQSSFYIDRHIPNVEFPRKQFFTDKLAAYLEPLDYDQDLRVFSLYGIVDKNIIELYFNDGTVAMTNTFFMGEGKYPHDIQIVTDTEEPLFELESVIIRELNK
Protocol: (§1) The cell free fraction was obtained by centrifugation (F-0) of a culture of S. occidentalis ATCC26077 grown at 29° C. and 235 rpm. Fructofuranosidase activity was assayed in the latter, determining the glucose release on different substrates. A colorimetric assay and the standard methodology were used. The released glucose was quantified using the glucose oxidase-peroxidase coupled reaction: 0.4 ml of the solution to be determined was mixed with 0.1 ml of A:B (20:1) solution (A: 0.85 U/ml glucose oxidase, 0.40 U/ml peroxidase in sodium phosphate buffer pH 5; B: 0.6% O-dianisidine). It was incubated for 30 minutes at 37° C. and spectrophotometrically quantified at 450 nm. A standard glucose curve (0 to 100 μg/ml) was used. The fructofuranosidase activity unit is defined in μmol/ml min of glucose determined in the described conditions.
The cell free fraction, obtained by centrifugation, of a culture of S. occidentalis grown in lactose medium: 0.3% (w/v) YNB (yeast nitrogen base w/o amino acids, DIFCO), 3.5% (w/v) bactopeptone (DIFCO), 0.5% (w/v) KH2 PO4, 1% (w/v) MgSO4.7H2O, 1% (w/v) (NH4)SO4, and 2% lactose as a carbon source (R. D. Klein et al., “Purification and characterization of invertase from to novel industrial yeast, Schwanniomyces occidentalis”, Prep. Biochem, 1989, vol 19, pp. 293-319), grown until an optical density of 8.34 OD 660 nm, was concentrated using a tangential filtration system (30 kDa filter) followed by dialysis against 20 mM HCl-Tris pH 7 for 2 hours at a temperature of 4° C. and was assayed on different substrates.

[2] = biological target: T2, Fructofuranosidase activity of the F-3 fraction of S. occidentalis (Schwanniomyces occidentalis, UniProt P24133); assay: Fructofuranosidase (hydrolytic) activity of the purified enzyme F-3 on different substrates; details: for Activity specific: purified protein F-3, 1% substrate; for Hydrolytic activity on substrate (in words): purified enzyme F-3
T2 construct: the enzyme object of the invention is extracellularly released; endogenous in cells; host or cells: Schwanniomyces occidentalis culture supernatant; concentrated (F-1), then DEAE-Sephacel at pH 7 (F-2) and at pH 5 (F-3)
T2 sequence (P24133 other isoform, or with tags, fused parts or gaps with the stated changes): as above
Protocol: as §1
The hydrolytic activity of the purified enzyme (F-3), following the described method, was assayed on different substrates. The maximum activity level is obtained on sucrose. Activity on lactose, leucrose, turanose or palatinose was not observed.

[3] = biological target: T3, fructofuranosidase of S. occidentalis (enzymatic concentrate F-1) (Schwanniomyces occidentalis, UniProt P24133); assay: Transfructosidase (transglycosylation) activity of enzymatic concentrate F-1 on sucrose, HPLC; details: for Composition of the system: maximum point of FOS production (4 h), F-1 5 U/ml; for Composition of the system / Composition of the reaction mixture: 50° C.; for Composition of the reaction mixture: F1 5 U/ml, pH 5.6
T3 construct: the enzyme object of the invention is extracellularly released; endogenous in cells; host or cells: Schwanniomyces occidentalis (ATCC26077 named) grown in lactose medium; the cell-free supernatant was concentrated by 30 kDa tangential filtration and dialysed
T3 sequence (P24133 other isoform, or with tags, fused parts or gaps with the stated changes): as above
Protocol: The transglycosylation activity of the enzymatic concentrate obtained by ultrafiltration (F-1) was assayed. A reaction was prepared using a high concentration of sucrose (510 g/l), to favor the formation of glycosidic bonds in detriment of the hydrolysis reaction, and a final activity enzymatic in the reaction mixture of approximately 5 U/ml. […] On one hand, fructose (peak 1) and glucose (peak 2) are formed as hydrolytic products. On the other hand, two trisaccharides are obtained: a majority trisaccharide (peak 4), identified as 6-kestose [β-D-Fru-(2→6)-β-D-Fru-(2→1)-α-D-Glu] and another minority trisaccharide (peak 5), identified as 1-kestose. [β-D-Fru-(2→1)-β-D-Fru-(2→1)-α-D-Glu]. The sucrose that has not reacted corresponds to peak 3.
It is observed that the 6-kestose/1-kestose molar ratio reaches a maximum value of 3.3 between 4 and 6 hours of reaction.
A high concentration solution of sucrose (510 g/l) in 0.2 M sodium acetate buffer pH 5.6 was prepared. The fructofuranosidase was added until a final concentration in the reaction mixture of 5 U/ml (one unit U is the enzymatic activity corresponding to release of a micromole of reducing sugars per minute, using 100 g/l of sucrose as substrate, in 0.2 M sodium acetate buffer pH 5.6, at 50° C.). The reaction mixture was incubated for 24 hours at 50° C., with orbital stirring at 700 rpm. Aliquots were extracted at different times, incubated for 5 minutes at 80° C. to inactivate the enzyme, diluted 1:2 (v/v) with water, centrifuged for 5 minutes at 6000 rpm in an eppendorf tube with a 0.45 μm filter and analyzed by HPLC liquid chromatography. The profile of the products formed is seen in FIG. 5. It is observed that the fructofuranosidase of S. occidentalis has transfer activity (transfructosylation). Two trisaccharides are obtained: one majority trisaccharide, 6-kestose [3-D-Fru-(2→6)-β-D-Fru-(2→1)-α-D-Glu]and another minority trisaccharide, identified as 1-kestose [β-D-Fru-(2→1)-β-D-Fru-(2→1)-α-D-Glu]. In the maximum point of FOS production (4 h), the composition of the system was: 8.7% fructose, 11.9% glucose, 70.8% sucrose, 2.0% 1-kestose and 6.6% 6-kestose.

[4] = biological target: T4, fructofuranosidase of S. occidentalis (pure enzyme F-3) (Schwanniomyces occidentalis, UniProt P24133); assay: Transfructosidase (transglycosylation) activity of pure enzyme F-3 on sucrose, HPLC; details: for Composition of the system: final reaction time (144 h), F-3 0.5 U/ml, 50° C.
T4 construct: the enzyme object of the invention is extracellularly released; endogenous in cells; host or cells: Schwanniomyces occidentalis culture supernatant; concentrated (F-1), then DEAE-Sephacel at pH 7 (F-2) and at pH 5 (F-3)
T4 sequence (P24133 other isoform, or with tags, fused parts or gaps with the stated changes): as above
Protocol: The transglycosylation activity of the pure enzyme (fraction F-3) was assayed. A reaction was prepared using a high concentration of sucrose (510 g/l) and a final enzymatic activity in the reaction mixture of approximately 0.5 U/ml. […] It is seen that the profile of the obtained products is very similar in both cases, specifically the 6-kestose/1-kestose ratio that was obtained was 3.3.
After 144 hours of reaction, 42.6 g/l of FOS were obtained. The total percentage (w/w) of fructooligosaccharides was 8.4% this value being with respect to the total weight of carbohydrates in the medium.
A high concentration solution of sucrose ([…]) in 0.2 M sodium acetate buffer pH 5.6 was prepared. The fructofuranosidase was added until a final concentration in the reaction mixture of 0.5 U/ml (one unit U is the enzymatic activity corresponding to releasing a micromole of reducing sugars per minute, using 100 g/l of sucrose as substrate, in 0.2 M sodium acetate buffer pH 5.6, at 50° C.). The reaction mixture was incubated for 144 hours at 50° C., with orbital stirring at 700 rpm. Aliquots were extracted at different times, incubated for 5 minutes at 80° C. to inactivate the enzyme, diluted 1:2 (v/v) with water centrifuged for 5 minutes at 6000 rpm in an eppendorf tube with a 0.45 μm filter and analyzed by HPLC liquid chromatography. The profile of the products formed is seen in FIG. 7. Two trisaccharides were obtained: a majority trisaccharide, identified as 6-kestose, and another minority trisaccharide, identified as 1-kestose. At the final reaction time (144 h), the composition of the system was: 12.7% fructose, 14.80/glucose. 64.1% sucrose, 2.4% 1-kestose and 5.9% 6-kestose).

Row | SMILES | Specific activity [1] | Activity specific [2] | Composition of the system [3] | Composition of the reaction mixture ([3]; reaction time 1 h) | Composition of the reaction mixture ([3]; reaction time 1.5 h) | Composition of the reaction mixture ([3]; reaction time 4 h) | Composition of the reaction mixture ([3]; reaction time 6 h) | Composition of the reaction mixture ([3]; reaction time 24 h) | Composition of the system [4] | 6-kestose/1-kestose molar ratio, maximum value ([3]; between 4 and 6 hours of reaction, F-1) | 6-kestose/1-kestose ratio ([4]; pure enzyme F-3 0.5 U/ml, 144 hours) | Fructofuranosidase activity on substrate (in words) [1] | Hydrolytic activity on substrate (in words) [2]
1 | OC[C@H]1O[C@@](CO)(O[C@H]2O[C@H](CO)[C@@H](O)[C@H](O)[C@H]2O)[C@@H](O)[C@@H]1O [sucrose, α-D-Glu-(1→2)-β-D-Fru] | 24 mU/μg | 109 mU/μg | 70.8% | 487.3 grams/liter | 453.8 grams/liter | 361.6 grams/liter | 343.7 grams/liter | 240.9 grams/liter | 64.1% |  |  |  | 
2 | OC[C@H]1O[C@H](OC[C@H]2O[C@H](O[C@]3(CO)O[C@H](CO)[C@@H](O)[C@@H]3O)[C@H](O)[C@@H](O)[C@@H]2O)[C@H](O)[C@@H](O)[C@H]1O [raffinose] | 0.2 mU/μg | 7.5 mU/μg |  |  |  |  |  |  |  |  |  |  | 
3 | OC[C@H]1O[C@@](CO)(OC[C@H]2O[C@@](CO)(O[C@H]3O[C@H](CO)[C@@H](O)[C@H](O)[C@H]3O)[C@@H](O)[C@@H]2O)[C@@H](O)[C@@H]1O [6-kestose, β-D-Fru-(2→6)-β-D-Fru-(2→1)-α-D-Glu] |  |  | 6.6% | 5.4 grams/liter | 12.7 grams/liter | 33.5 grams/liter | 31.0 grams/liter | 10.6 grams/liter | 5.9% | 3.3 | 3.3 |  | 
4 | OC[C@H]1O[C@@](CO)(OC[C@@]2(O[C@H]3O[C@H](CO)[C@@H](O)[C@H](O)[C@H]3O)O[C@H](CO)[C@@H](O)[C@@H]2O)[C@@H](O)[C@@H]1O [1-kestose, β-D-Fru-(2→1)-β-D-Fru-(2→1)-α-D-Glu] | 2.2 mU/μg | 6.3 mU/μg | 2.0% | 2.8 grams/liter | 6.4 grams/liter | 10.1 grams/liter | 9.6 grams/liter | 4.5 grams/liter | 2.4% |  |  |  | 
5 | OC[C@H]1O[C@H](OC[C@H]2OC(O)(CO)[C@@H](O)[C@@H]2O)[C@H](O)[C@@H](O)[C@@H]1O (stereo partly shown) [palatinose] |  |  |  |  |  |  |  |  |  |  |  | No activity was detected | not observed
6 | OC[C@H]1O[C@@H](O[C@H]2[C@H](O)[C@@H](O)C(O)O[C@@H]2CO)[C@H](O)[C@@H](O)[C@H]1O (stereo partly shown) [lactose] |  |  |  |  |  |  |  |  |  |  |  | No activity was detected | not observed
7 | O=C(CO)[C@@H](O[C@H]1O[C@H](CO)[C@@H](O)[C@H](O)[C@H]1O)[C@H](O)[C@H](O)CO [turanose] |  |  |  |  |  |  |  |  |  |  |  | No activity was detected | not observed
8 | OC[C@H]1O[C@H](O[C@@H]2COC(O)(CO)[C@@H](O)[C@@H]2O)[C@H](O)[C@@H](O)[C@@H]1O (stereo partly shown) [leucrose] |  |  |  |  |  |  |  |  |  |  |  | No activity was detected | not observed
9 | O=C(CO)[C@@H](O)[C@H](O)[C@H](O)CO [fructose] |  |  | 8.7% | 5.3 grams/liter | 16.8 grams/liter | 44.3 grams/liter | 54.8 grams/liter | 113.6 grams/liter | 12.7% |  |  |  | 
10 | OC[C@H]1O[C@@](CO)(OC[C@@]2(OC[C@@]3(O[C@H]4O[C@H](CO)[C@@H](O)[C@H](O)[C@H]4O)O[C@H](CO)[C@@H](O)[C@@H]3O)O[C@H](CO)[C@@H](O)[C@@H]2O)[C@@H](O)[C@@H]1O [nystose] | 0.6 mU/μg | 6.2 mU/μg |  |  |  |  |  |  |  |  |  |  | 

Reference: patent US20090148907A1, “NOVEL FRUCTOFURANOSIDASE ACTIVITY FOR OBTAINING THE PREBIOTIC OLIGOSACCHARIDE 6-KESTOSE” (CONSEJO SUPERIOR DE INVESTIGACIONES CIENTIFICAS, priority 2005, published 2009)
